Measurements: patent US12559492B2, “BRAF degraders” (C4 Therapeutics, Inc., priority 2020, dated 2026)

Target: BRAF^V600E protein (Homo sapiens, UniProt P15056, V600E)
Assay: HiBiT cellular BRAF V600E degradation assay
Assay type: cell-based
Settings: 24 h incubation; for DC50: A375.10 cells (HiBiT tag knocked in at N-terminal of BRAF V600E), concentration at which 50% of total cellular BRAF V600E is degraded; for Emax: read-out: HiBit 24 h Emax
[1] = A375.10 cells, Emax = amount of residual protein remaining in the cell after compound treatment

Sequence of BRAF^V600E protein (P15056 whole entry V600E): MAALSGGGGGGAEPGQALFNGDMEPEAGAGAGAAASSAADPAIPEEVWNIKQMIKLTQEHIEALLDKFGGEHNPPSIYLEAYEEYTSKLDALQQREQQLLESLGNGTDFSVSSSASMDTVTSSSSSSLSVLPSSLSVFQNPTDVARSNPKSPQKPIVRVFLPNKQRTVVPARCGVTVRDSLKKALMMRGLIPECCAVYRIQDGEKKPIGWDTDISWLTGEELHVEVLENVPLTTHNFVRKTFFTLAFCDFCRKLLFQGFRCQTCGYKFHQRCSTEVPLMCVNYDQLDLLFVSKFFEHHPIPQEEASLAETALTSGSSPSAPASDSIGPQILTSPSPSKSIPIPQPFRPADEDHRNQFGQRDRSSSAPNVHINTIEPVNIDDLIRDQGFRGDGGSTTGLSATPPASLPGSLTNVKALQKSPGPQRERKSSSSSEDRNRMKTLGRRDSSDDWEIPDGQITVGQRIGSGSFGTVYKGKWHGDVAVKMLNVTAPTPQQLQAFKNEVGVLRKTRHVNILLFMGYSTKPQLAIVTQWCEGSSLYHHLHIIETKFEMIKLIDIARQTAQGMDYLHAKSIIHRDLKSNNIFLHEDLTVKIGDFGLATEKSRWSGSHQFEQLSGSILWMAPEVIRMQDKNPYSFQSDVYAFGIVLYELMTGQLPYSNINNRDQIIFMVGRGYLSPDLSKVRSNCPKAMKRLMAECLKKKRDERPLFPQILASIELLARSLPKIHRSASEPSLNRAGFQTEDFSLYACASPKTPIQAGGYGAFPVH

| DC50 | Emax [1] | HiBit 24 h Emax [1] | Compound |
| --- | --- | --- | --- |
| 192 nM | 24% | – | O=C(c1c(F)ccc(NS(=O)(=O)N2CCCC2)c1F)c1c[nH]c2ncc(-c3ccc(N4CC5(CN(C(=O)CN6CCC(c7ccc(NC89CC(C8)C(=O)NC9=O)cc7)CC6)C5)C4)cc3)cc12 [Example A117, N-[3-[5-[4-[2-[2-[4-[4-[(2,4-Dioxo-3-azabicyclo[3.1.1]heptan-1-yl)amino]phenyl]piperidin-1-yl]acetyl]-2,6-diazaspiro[3.3]heptan-6-yl]phenyl]-1H-pyrrolo[2,3-b]pyridine-3-carbonyl]-2,4-difluorophenyl]pyrrolidine-1-sulfonamide] |
| 29 nM | 11% | – | O=C1CCC(c2ccc(C3CCN(CC(=O)N4CC5(C4)CN(c4ncc(-c6cnc7[nH]cc(C(=O)c8c(F)ccc(NS(=O)(=O)N9CCCC9)c8F)c7c6)cn4)C5)CC3)cc2)C(=O)N1 (centres unmarked) [Example A118, N-[3-[5-[2-[2-[2-[4-[4-(2,6-Dioxopiperidin-3-yl)phenyl]piperidin-1-yl]acetyl]-2,6-diazaspiro[3.3]heptan-6-yl]pyrimidin-5-yl]-1H-pyrrolo[2,3-b]pyridine-3-carbonyl]-2,4-difluorophenyl]pyrrolidine-1-sulfonamide] |
| 47 nM | 12% | – | O=C1CCC(Oc2ccc(C3CCN(CC(=O)N4CC5(C4)CN(c4ncc(-c6cnc7[nH]cc(C(=O)c8c(F)ccc(NS(=O)(=O)N9CCCC9)c8F)c7c6)cn4)C5)CC3)cc2)C(=O)N1 (centres unmarked) [Example A119, N-[3-[5-[2-[2-[2-[4-[4-(2,6-Dioxopiperidin-3-yl)oxyphenyl]piperidin-1-yl]acetyl]-2,6-diazaspiro[3.3]heptan-6-yl]pyrimidin-5-yl]-1H-pyrrolo[2,3-b]pyridine-3-carbonyl]-2,4-difluorophenyl]pyrrolidine-1-sulfonamide] |
| 8 nM | 8% | – | O=C1CCC(Nc2ccc(C3CCN(CC(=O)N4CC5(C4)CN(c4ncc(-c6cnc7[nH]cc(C(=O)c8c(F)ccc(NS(=O)(=O)N9CCCC9)c8F)c7c6)cn4)C5)CC3)cc2)C(=O)N1 (centres unmarked) [Example A120, N-[3-[5-[2-[2-[2-[4-[4-[(2,6-Dioxopiperidin-3-yl)amino]phenyl]piperidin-1-yl]acetyl]-2,6-diazaspiro[3.3]heptan-6-yl]pyrimidin-5-yl]-1H-pyrrolo[2,3-b]pyridine-3-carbonyl]-2,4-difluorophenyl]pyrrolidine-1-sulfonamide] |
| 12 nM | 8% | – | CCN(C)S(=O)(=O)Nc1ccc(F)c(C(=O)c2c[nH]c3ncc(-c4ccc(N5CCN(C(=O)CN6CCC(c7ccc(O[C@H]8CCC(=O)NC8=O)cc7)CC6)CC5)nc4)cc23)c1F [Example A121, 5-[6-[4-[2-[4-[4-[(3S)-2,6-Dioxopiperidin-3-yl]oxyphenyl]piperidin-1-yl]acetyl]piperazin-1-yl]pyridin-3-yl]-3-[3-[[ethyl(methyl)sulfamoyl]amino]-2,6-difluorobenzoyl]-1H-pyrrolo[2,3-b]pyridine] |
| 32 nM | 9% | – | CCN(C)S(=O)(=O)Nc1ccc(F)c(C(=O)c2c[nH]c3ncc(-c4ccc(N5CCN(C(=O)CN6CCC(c7ccc(O[C@@H]8CCC(=O)NC8=O)cc7)CC6)CC5)nc4)cc23)c1F [Example A122, 5-[6-[4-[2-[4-[4-[(3R)-2,6-Dioxopiperidin-3-yl]oxyphenyl]piperidin-1-yl]acetyl]piperazin-1-yl]pyridin-3-yl]-3-[3-[[ethyl(methyl)sulfamoyl]amino]-2,6-difluorobenzoyl]-1H-pyrrolo[2,3-b]pyridine] |
| 10 nM | – | 8% | CCN(C)S(=O)(=O)Nc1ccc(F)c(C(=O)c2c[nH]c3ncc(-c4cnc(N5CCN(C(=O)NC6CCN(c7ccc(NC8CCC(=O)NC8=O)cc7F)CC6)CC5)nc4)cc23)c1F.O=C(O)C(F)(F)F (centres unmarked) [Example A123, N-[1-[4-[(2,6-Dioxopiperidin-3-yl)amino]-2-fluorophenyl]piperidin-4-yl]-4-[5-[3-[3-[[ethyl(methyl)sulfamoyl]amino]-2,6-difluorobenzoyl]-1H-pyrrolo[2,3-b]pyridin-5-yl]pyrimidin-2-yl]piperazine-1-carboxamide; 2,2,2-trifluoroacetic acid] |
